Laboratory results as given in the NIST ThermoML archive (doi:10.1021/acs.jced.7b00267).
Numbers after ± are expanded uncertainties.

Settings: 101.35 kPa, Liquid; for viscosity: Falling or rolling sphere viscometry; for mass density: Vibrating tube method

**Q.** Which viscosity (293.15 K) does the source give for `CCO` [ethanol] here?
**A.** The viscosity was 1.194 ± 0.037 mPa·s.

**Q.** And the mass density (293.15 K)?
**A.** Its mass density is 789.5 ± 0.4 kg/m3.

**Q.** And the viscosity (298.15 K)?
**A.** Its viscosity is 1.085 ± 0.034 mPa·s.

**Q.** And the mass density (298.15 K)?
**A.** Its mass density is 785.2 ± 0.4 kg/m3.

**Q.** What about the viscosity (303.15 K) of the same compound?
**A.** The viscosity was 0.9897 ± 0.031 mPa·s.

**Q.** What about the mass density (303.15 K) of the same compound?
**A.** Its mass density is 780.8 ± 0.4 kg/m3.

**Q.** What about the viscosity (308.15 K) of the same compound?
**A.** The viscosity was 0.9036 ± 0.028 mPa·s.

**Q.** And the mass density (308.15 K)?
**A.** The mass density was 776.5 ± 0.4 kg/m3.

**Q.** What about the viscosity (313.15 K) of the same compound?
**A.** The viscosity was 0.8277 ± 0.026 mPa·s.

**Q.** What about the mass density (313.15 K) of the same compound?
**A.** The mass density was 772.1 ± 0.4 kg/m3.

**Q.** And the viscosity (318.15 K)?
**A.** The viscosity was 0.759 ± 0.023 mPa·s.

**Q.** What about the mass density (318.15 K) of the same compound?
**A.** The mass density was 767.7 ± 0.4 kg/m3.

**Q.** What about the viscosity (323.15 K) of the same compound?
**A.** Its viscosity is 0.6978 ± 0.022 mPa·s.

**Q.** And the mass density (323.15 K)?
**A.** The mass density was 763.2 ± 0.4 kg/m3.

**Q.** And the viscosity (328.15 K)?
**A.** Its viscosity is 0.6434 ± 0.02 mPa·s.

**Q.** And the mass density (328.15 K)?
**A.** Its mass density is 758.7 ± 0.4 kg/m3.

**Q.** And the viscosity (333.15 K)?
**A.** Its viscosity is 0.5942 ± 0.018 mPa·s.

**Q.** And the mass density (333.15 K)?
**A.** The mass density was 754.1 ± 0.4 kg/m3.
